From patent publication US11047848B2, “Cellular discovery platform for neurodegenerative diseases” (Whitehead Institute for Biomedical Research, priority 2013, dated 2021)

Tested on: primary cortical cultures
Experiment: Optimization of the NO sensor FL2 in rat primary cortical cultures
Format: cell-based
Conditions: 500 μM DETA-NONOate for 30 min, DIV 14-21; FIG. 20
Method: FIG. 20. Optimization of the NO sensor, FL2, using an NO donor, DETA-NONOate. FL2 dye was loaded after exposing primary cortical cultures (DIV 14-21) to 500 μM DETA-NONOate for 30 min. […] Control cultures exposed to dye without an NO donor are shown in the upper panel. A single representative experiment is shown.
Embryos were harvested by cesarean section from anesthetized pregnant Sprague-Dawley rats at embryonic day 18. Cerebral cortices were isolated and dissociated with Accumax (Innovative Cell Technologies, Inc) digestion for 20 min at 37° C. and triutration with Pasteur pipette. Poly-ornithine and lamine-coated 96 well plates or 8 well-chambered coverglass (Lab-Tek; 70378-81) were seeded with 4×10^4 or 8×10^4 cells respectively in neurobasal medium (Life Technologies) supplemented with B27 (Life Technologies), 0.5 mM glutamine, 25 μM β-mercaptoethanol, penicillin (100 IU/ml) and streptomycin (100 μg/ml). One third of the medium was changed every 3 to 4 days. As a surrogate marker of cell viability, cellular ATP content was measured using the ViaLight Plus kit (Lonza).
The FL2 sensor used in this study was a non-acidified and non-esterified version of the FL2-related sensors that have been previously published^23,24,53,55. A working 1 mM solution of FL2 (batch SJL #1768) in DMSO (Sigma 276855) was stable for at least 3 months at −20° C. […]

## NCCN(CCN)/[N+]([O-])=N/O [DETA-NONOate]
  FL2 response (NO signal): robust FL2 response
